A short description of this data set: solvent given as SMILES.

Structures are written as SMILES.

`COC(=O)C(Cc1ccc2oc(-c3ccc(N(C)C)cc3)nc2c1)NC(=O)OC(C)(C)C` (configuration not stated): the emission maximum worked out at 377 nm (in C1CCCCC1); 391.5 nm (in C1CCOC1); 377 nm (in C1COCCO1); 384.5 nm (in CC1CCCO1); 404.01 nm (in CC1COC(=O)O1); 395.51 nm (in CC#N). The emission maximum came to 394.49 nm (in CC(C)=O); 375 nm (in CC(C)CC(C)(C)C); 396.49 nm (in CC(C)CO); 397 nm (in CC(C)O); 387.51 nm (in CC(C)OC(C)C); 408.5 nm (in CC(O)CO). The emission maximum was determined as 374.5 nm (in CCC(C)CC); 374 nm (in CCCCC); 375 nm (in CCCCCC); 376 nm (in CCCCCCCCC); 377 nm (in CCCCCCCCCC); 396.49 nm (in CCCCCCCO). The emission maximum is, setting by setting: (in CCCCCCO) 397.99 nm; (in CCCCCO) 388.5 nm; (in CCCCO) 399.5 nm; (in CCO) 403 nm; (in CCOC(C)=O) 381.5 nm; (in CCOCC) 379.51 nm. Also, the emission maximum was 400.5 nm (in CN(C)C=O); 403.5 nm (in CO); 395.51 nm (in COCCOC); 408.5 nm (in CS(C)=O); 374.5 nm (in Cc1ccccc1); 373 nm (in Cc1ccccc1C). Also, the emission maximum is reported as 382 nm (in ClC(Cl)Cl); 388 nm (in ClCCl); 411.51 nm (in NC=O); 398.99 nm (in OC1CCCCC1); 408.5 nm (in OCCO); 375.5 nm (in c1ccccc1).

As for `C(=C\c1ccc(/C=C/c2ccc(N(c3ccccc3)c3ccccc3)cc2)cc1)/c1ccc(/C=C/c2ccc(N(c3ccccc3)c3ccccc3)cc2)cc1`, under “in ClCCl”, the emission maximum is reported as 510 nm.

Take `COc1ccc(-c2nc(C(C)=O)c(C)o2)cc1`: the emission maximum is, setting by setting: (in CC#N) 347 nm; (in CCO) 354 nm; (in CCOC(C)=O) 347 nm; (in CCOCC) 345 nm; (in ClCCl) 351 nm.

Consider `C(=C\c1ccncn1)/c1ccc(N(c2ccccc2)c2ccccc2)cc1`, for which the emission maximum is, setting by setting: (in C1CCOC1) 496 nm; (in CC#N) 545 nm; (in CCCCCCC) 443 nm; (in CS(C)=O) 550 nm; (in ClCCl) 526 nm.

For the setting “in CCO”, `CC(C)(C)Nc1cc2sc3cc(NC(C)(C)C)c(F)cc3c(=O)c2cc1F` registered an emission maximum of 432 nm.

As for `c1ccc(-c2nn(-c3ccccc3)c3nc4ccc(N(c5ccccc5)c5cccc6ccccc56)cc4cc23)cc1`, the emission maximum by setting is: (in C1CCCCC1) 484.73 nm; (in C1CCOC1) 516 nm; (in CC#N) 555.25 nm; (in CC(C)=O) 538.21 nm; (in CCCCCl) 509.68 nm; (in CCCCOCCCC) 494.8 nm. The molecule further came in with an emission maximum (in CN(C)C=O) of 553.1 nm.

`Fc1ccccc1-c1c2cc(Cl)ccc2nc2cc3ccccc3cc12` showed an emission maximum (in ClCCl) of 526 nm.

Molecule `Cc1cccc2cc(C)c3c4ccccc4[nH]c3c12` yielded an emission maximum (in ClCCl) of 364 nm.

Regarding `CCOC(=O)/C(C#N)=C/c1cc2c3ccccc3n(C)c2cc1OC`, the emission maximum turned out to be 460 nm (in C1CCOC1); 486 nm (in CC#N); 458 nm (in CCOC(C)=O); 486 nm (in CN(C)C=O); 486 nm (in CO); 488 nm (in CS(C)=O). The emission maximum by setting is: (in Cc1ccccc1) 446 nm; (in ClC(Cl)Cl) 468 nm; (in ClCCl) 472 nm.

With `CCCCCCCCC1(CCCCCCCC)c2cc3c(cc2-c2sc(-c4ccc(/C=C5\SC(N6CCCCC6)=NC5=O)c5nsnc45)cc21)C(CCCCCCCC)(CCCCCCCC)c1cc(-c2ccc(/C=C4\SC(N5CCCCC5)=NC4=O)c4nsnc24)sc1-3`, the emission maximum (in ClC(Cl)Cl) is reported as 675 nm.

As for `Cc1cc(C(F)(F)F)nc2c1ccc1nc(-c3ccc(F)c(F)c3)cn12`, the emission maximum runs as follows: (in CC#N) 460 nm; (in CCCCCC) 433 nm; (in CCCCOC(C)=O) 453 nm; (in CCOC(C)=O) 454 nm; (in CO) 456 nm; (in Cc1ccccc1) 451 nm. For the same molecule, the emission maximum is, setting by setting: (in ClC(Cl)Cl) 448 nm; (in ClCCl) 451 nm; (in c1ccccc1) 450 nm.

Under “in ClCCl”, `COc1ccc(C#Cc2c3cc4ccccc4cc3c(C#C[Si](C(C)C)(C(C)C)C(C)C)c3cc4ccccc4cc23)cc1` yielded an emission maximum of 666 nm.

As to `COc1cccc(-c2c3ccccc3c3n2[B-](F)(F)[N+]2=Cc4c5ccccc5c(-c5cccc(OC)c5)n4[B-](F)(F)[N+]2=C3)c1`, the emission maximum by setting is: (in CC#N) 596 nm; (in CCCCCC) 598 nm; (in CN(C)C=O) 603 nm; (in Cc1ccccc1) 608 nm; (in ClCCl) 602 nm.

In the case of `F[B-]1(F)n2cccc2C(c2c3ccccc3c(-c3ccccc3)c3ccccc23)=C2C=CC=[N+]21`, the emission maximum stood at 524 nm (in CC#N); 564 nm (in CCCCCC); 522 nm (in CCO); 526 nm (in CN(C)C=O); 529 nm (in Cc1ccccc1); 526 nm (in ClCCl).

Molecule `O=C1NC(c2ccccc2)=N/C1=C\c1ccccc1` displayed an emission maximum (in C1COCCO1) of 444 nm.

As for `CCOC(=O)c1cc(C(=O)OCC)c2cc(NC(=O)C(F)(F)F)ccc2n1`, where the note is “in CCO”, the emission maximum turned out to be 436 nm.

Regarding `Cc1c2c(c(C)c3ccccc13)C1=C2C=CC2Nc3ccccc3NC12` (configuration not stated), the emission maximum (in ClC(Cl)Cl) came to 544 nm.

Where the note is “in ClCCl”, `CC1=C(C#Cc2ccc(B(c3c(C)cc(C)cc3C)c3c(C)cc(C)cc3C)cc2)C(C)=[N+]2C1=C(c1ccccc1)c1c(C)c(C#Cc3ccc(B(c4c(C)cc(C)cc4C)c4c(C)cc(C)cc4C)cc3)c(C)n1[B-]2(F)F` returned an emission maximum of 602 nm.

`CCCCOc1cc2ccccc2c2c1oc1cc3ccccc3cc12`: the emission maximum (in C1CCOC1) was 381 nm.

With `CN1c2ccc3c(c2-c2ccccc2S1(=O)=O)-c1ccccc1S(=O)(=O)N3C`, under “in ClCCl”, the emission maximum came out at 443 nm.

In the case of `O=c1oc2ccccc2cc1-c1cccc(-c2cc3ccccc3oc2=O)c1`, for the setting “in ClC(Cl)Cl”, the emission maximum is 419 nm.

Turning to `Nc1cc([NH3+])cc(-c2nc3ccccc3s2)c1`, for the setting “in O”, the emission maximum was determined as 493.5 nm.

Under “in CC#N”, `COc1cc2cc(/C=C/c3ccc(/C=C(\C#N)C(=O)O)cc3)c(=O)oc2cc1OC` registered an emission maximum of 483 nm.

Regarding `COc1cc(/C=C/c2nc3ccccc3o2)c(OC)cc1/C=C/c1nc(C)nc(/C=C/c2cc(OC)c(/C=C/c3nc4ccccc4o3)cc2OC)n1`, the emission maximum is given as 487 nm (in C1CCOC1), 502 nm (in CC#N), 494 nm (in ClC(Cl)Cl) and 496 nm (in ClCCl).

Turning to `F[B-]1(F)N(c2ccccc2)C=Cc2cccc[n+]21`, the emission maximum is, setting by setting: (in C1CCCCC1) 543 nm; (in C1CCOC1) 541 nm; (in CC#N) 555 nm; (in CCO) 553 nm; (in O) 539 nm.

Where the note is “in CC1CCCO1”, `CC1=CC(C)=[N+]2C1=C(c1ccc(C)cc1)c1c(C)cc(/C=C/c3ccc4ccc5cccc6ccc3c4c56)n1[B-]2(F)F` had an emission maximum of 618 nm.

`CC(C)(C)c1ccc(-c2nc3c4ccc(-c5ccccc5)cc4c4cc(-c5ccccc5)ccc4c3n2-c2ccc(C(C)(C)C)cc2)cc1`: the emission maximum reads like this: (in C1CCOC1) 389 nm; (in C1COCCO1) 389 nm; (in CC#N) 391 nm; (in CCCCCC) 385 nm; (in CCCCOCCCC) 386 nm; (in CCN(CC)CC) 386 nm. The emission maximum turned out to be 388 nm (in CCOC(C)=O); 386 nm (in CCOCC); 392 nm (in CN(C)C=O); 388 nm (in Cc1ccccc1); 389 nm (in ClC=C(Cl)Cl); 390 nm (in ClCCl).

In turn, `N#CC=C(c1ccc(N2c3ccccc3Oc3ccccc32)cc1)c1ccc(N2c3ccccc3Oc3ccccc32)cc1` yielded an emission maximum (in Cc1ccccc1) of 574 nm.

As to `CN(C)c1ccc2c(c1)C(=O)c1ccccc1-2`, the emission maximum was found to be 600 nm (in C1CCCCC1) and 644 nm (in c1ccccc1).

For the molecule `O=C1OC(=O)C2=C1S[C@]13C2=C[C@H](c2ccccc21)c1ccccc13`, the emission maximum (in ClCCl) stood at 514 nm.

`CCc1c(C)c2n(c1C)[B-](F)(F)[N+]1=C(NCc3ccc(OC)cc3)C(SC#N)=CC1=C2C`: the emission maximum is, setting by setting: (in CC#N) 582 nm; (in CCCCCC) 589 nm; (in CCOC(C)=O) 586 nm; (in CO) 583 nm; (in ClCCl) 586 nm.

Consider `CC(=O)c1ccc2ccc3cccc4ccc1c2c34`, for which the emission maximum by setting is: (in C1CCOC1) 387 nm; (in CC#N) 390 nm; (in CCCCCC) 387 nm; (in CCO) 436 nm; (in CN(C)C=O) 392 nm; (in CO) 443 nm. Further, the emission maximum stood at 392 nm (in Cc1ccccc1) and 396 nm (in ClCCl).

With `Clc1cc(Cl)c(B2c3ccccc3Nc3ccccc32)c(Cl)c1`, for the setting “in ClCCl”, the emission maximum was found to be 413 nm.

These data come from the Deep4Chem optical property database.
